Residues, ends and D or L forms follow the SMILES beside them.
Experiments:
[1] = tested on: Culture A80438 (Streptomyces bobili NRRL 15971); experiment: Antibiotic sensitivity discs on seeded ISP No. 2 agar plates; conditions: sensitivity disc
S. bobili = conditions: published descriptions; cited from earlier work
[2] = tested on: A80438 (Streptomyces bobili NRRL 15971); experiment: Streptomycin inhibition (taxonomic comparison); conditions: culture A80438
[3] = tested on: Culture A80438 (Streptomyces bobili NRRL 15971); experiment: Resistance to lysozyme; format: cell-based
Method: Resistance to lysozyme was measured by methods recommended by Gordon and Barnett [R. E. Gordon and D. A. Barnett, "Resistance to Rifampin and Lysozyme of Strains of Some Species of Mycobacterium and Nocardia as a Taxonomic Tool", Int. J. Syst. Bacteriol. 27, 176-178 (1977)].

coccidiosis = conditions: alone; Science 122, 244 (1955); cited from earlier work

## CO[C@H]1C[C@H](O[C@H]2[C@H](C)[C@@H](O[C@@H]3O[C@H](C)C[C@H](N(C)C)[C@H]3O)[C@@H](C)C[C@@]3(CO3)C(=O)[C@H](C)[C@@H](O)[C@@H](C)[C@@H](C)OC(=O)[C@@H]2C)O[C@@H](C)[C@@H]1O [oleandomycin]
[1]; 15 units
  Resistance/sensitivity of culture A80438: sensitive

## [H]/N=C(/N)N[C@H]1[C@H](O)[C@@H](O)[C@H](O[C@@H]2O[C@@H](C)[C@](O)(C=O)[C@H]2O[C@@H]2O[C@@H](CO)[C@H](O)[C@@H](O)[C@@H]2NC)[C@@H](N/C(N)=N\[H])[C@@H]1O [streptomycin]
S. bobili
  Streptomycin inhibition: +
[1]; 10 μg
  Resistance/sensitivity of culture A80438: sensitive
[2]
  Streptomycin inhibition: +

## NC[C@H]1O[C@H](O[C@H]2[C@H](O)[C@@H](O[C@H]3O[C@H](CO)[C@@H](O)[C@H](N)[C@H]3O)[C@H](N)C[C@@H]2N)[C@H](N)C[C@@H]1O [tobramycin]
[1]; 10 μg
  Resistance/sensitivity of culture A80438: sensitive

## lysozyme
[3]
  Resistance/sensitivity of culture A80438 to lysozyme: sensitive

## CN[C@H](CC(C)C)C(=O)N[C@H]1C(=O)N[C@@H](CC(N)=O)C(=O)N[C@H]2C(=O)N[C@H]3C(=O)N[C@H](C(=O)N[C@H](C(=O)O)c4cc(O)cc(O)c4-c4cc3ccc4O)[C@H](O)c3ccc(c(Cl)c3)Oc3cc2cc(c3O[C@@H]2O[C@H](CO)[C@@H](O)[C@H](O)[C@H]2O[C@H]2C[C@](C)(N)[C@H](O)[C@H](C)O2)Oc2ccc(cc2Cl)[C@H]1O [vancomycin]
[1]; 30 μg
  Resistance/sensitivity of culture A80438: sensitive

## neomycin
[1]; 30 μg
  Resistance/sensitivity of culture A80438: sensitive

## O=C(Nc1ccc([N+](=O)[O-])cc1)Nc1ccc([N+](=O)[O-])cc1 [4,4'-dinitrocarbanilide]
coccidiosis
  Anticoccidial activity: exhibits anticoccidial activity

## CCC[C@@H]1C[C@@H](C(=O)N[C@@H]([C@H]2O[C@H](SC)[C@H](O)[C@@H](O)[C@H]2O)[C@@H](C)O)N(C)C1 [lincomycin]
[1]; 2 μg
  Resistance/sensitivity of culture A80438: resistant

## CO[C@H]1/C=C/O[C@@]2(C)Oc3c(C)c(O)c4c(O)c(c(/C=N/N5CCN(C)CC5)c(O)c4c3C2=O)NC(=O)/C(C)=C\C=C\[C@H](C)[C@H](O)[C@@H](C)[C@@H](O)[C@@H](C)[C@H](OC(C)=O)[C@@H]1C [rifampin]
[1]; 5 μg
  Resistance/sensitivity of culture A80438: sensitive

## gentamicin
[1]; 10 μg
  Resistance/sensitivity of culture A80438: sensitive

## CN(C)C1C(=O)C(C(N)=O)=C(O)C2(O)C(=O)C3=C(O)c4c(O)cccc4C(C)(O)C3CC12 (stereo not shown) [tetracycline]
[1]; 30 μg
  Resistance/sensitivity of culture A80438: sensitive

## CC(=O)OCC1=C(C(=O)O)N2C(=O)[C@@H](NC(=O)Cc3cccs3)[C@H]2SC1 [cephalothin]
[1]; 30 μg
  Resistance/sensitivity of culture A80438: resistant

## CC1(C)S[C@@H]2[C@H](NC(=O)Cc3ccccc3)C(=O)N2[C@H]1C(=O)O [penicillin G]
[1]; 10 units
  Resistance/sensitivity of culture A80438: resistant

## CC[C@H](C)[C@H](N)C1=N[C@H](C(=O)N[C@@H](CC(C)C)C(=O)N[C@H](CCC(=O)O)C(=O)N[C@H](C(=O)N[C@H]2CCCCNC(=O)[C@H](CC(N)=O)NC(=O)[C@@H](CC(=O)O)NC(=O)[C@H](Cc3cnc[nH]3)NC(=O)[C@@H](Cc3ccccc3)NC(=O)[C@H]([C@@H](C)CC)NC(=O)[C@@H](CCCN)NC2=O)[C@@H](C)CC)CS1 [bacitracin] (HELM PEPTIDE1{[CC[C@H](C)[C@H](N)C1=N[C@H](C(=O)[*:2])CS1].L.[dE].I.K.[NCCC[C@@H](N[*:1])C(=O)[*:2]].I.[dF].H.[dD].N}$PEPTIDE1,PEPTIDE1,5:R3-11:R2$$$V2.0)
[1]; 10 units
  Resistance/sensitivity of culture A80438: sensitive

Reference: patent US4824863A, “Antibiotic A80438” (Eli Lilly and Company, priority 1985, dated 1989)
